In PubChem BioAssay (NCI):
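These data come from cells grown in 96-well plates and exposed to compound for 48 hours at five concentrations. Definition used: TGI = concentration required for complete inhibition of growth.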

How the values were obtained:
Test in all cases: NCI-60 cell line screen, 48 h
[1] = system: 786-0 renal
[2] = system: A498 renal
[3] = system: A549 NSCLC
[4] = system: ACHN renal
[5] = system: BT-549 breast
[6] = system: CAKI-1 renal
[7] = system: COLO 205 colon
[8] = system: DU-145 prostate
[9] = system: EKVX NSCLC
[10] = system: HCC-2998 colon
[11] = system: HCT-116 colon
[12] = system: HCT-15 colon
[13] = system: HL-60(TB) leukemia
[14] = system: HOP-62 NSCLC
[15] = system: HOP-92 NSCLC
[16] = system: HS 578T breast
[17] = system: HT29 colon
[18] = system: IGROV1 ovarian
[19] = system: K-562 leukemia
[20] = system: LOX IMVI melanoma
[21] = system: M14 melanoma
[22] = system: MALME-3M melanoma
[23] = system: MCF7 breast
[24] = system: MDA-MB-231 breast
[25] = system: MDA-MB-435
[26] = system: MDA-N
[27] = system: NCI-H226 lung
[28] = system: NCI-H23 lung
[29] = system: NCI-H460 lung
[30] = system: NCI-H522 lung
[31] = system: NCI/ADR-RES ovarian
[32] = system: OVCAR-3 ovarian
[33] = system: OVCAR-4 ovarian
[34] = system: OVCAR-5 ovarian
[35] = system: OVCAR-8 ovarian
[36] = system: PC-3 prostate
[37] = system: RPMI-8226 leukemia
[38] = system: RXF 393 renal
[39] = system: SF-268 CNS
[40] = system: SF-295 CNS
[41] = system: SF-539 CNS
[42] = system: SK-MEL-2 melanoma
[43] = system: SK-MEL-28 melanoma
[44] = system: SK-MEL-5 melanoma
[45] = system: SK-OV-3 ovarian
[46] = system: SN12C renal
[47] = system: SNB-19 CNS
[48] = system: SNB-75 CNS
[49] = system: SR leukemia
[50] = system: SW-620 colon
[51] = system: TK-10 renal
[52] = system: U251 CNS
[53] = system: UACC-257 melanoma
[54] = system: UACC-62 melanoma
[55] = system: UO-31 renal

Measured: TGI

CC1=C(/C=C/C(=O)O)C(C)(C)CCC1
> 100 µM: all assays above
